Each structure is given as a SMILES string. “Also recorded” adds a separate entry of the source.

The target in series [1] is T1, human SphK1 (Homo sapiens, UniProt Q9NYA1).
T1 construct: constructed by sub-cloning DNA encoding the indicated translational open reading frames into the pYES2-FLAG-URA expression vector; expressed in transfected cells; host or cells: Saccharomyces cerevisiae CBY169 or KYA1, plasmid pGAL-HsSPHK1
The experiment in a line: yeast growth rescue assay, strain CBY169 expressing human SphK1. Format: cell-based. The note with it: for rescue of growth in galactose media: strain CBY169 expressing human SphK1. The text has this:
(§1) The plasmids pGAL-HsSPHK1, pGAL-HsSPHK2, pGAL-MmSphk1, pGAL-MmSphk1L277M, pGAL-MmSphk2, pGAL-HsCERK and pGAL-SK2_MOD used in this study were constructed by sub-cloning DNA encoding the indicated translational open reading frames into the pYES2-FLAG-URA expression vector (provided by Dr. Cungui Mao). […] Excepting human and mouse SphK2, the DNA sequences are synthetic (from GeneWiz LLC (South Plainfield, NJ)) and were optimized for expression in S. cerevisiae.
(§2) Yeast harboring plasmids were selected and maintained on synthetic complete media lacking uracil (SC-URA) with 2% glucose as the fermentable carbon source. After overnight growth at 30°C in this media, the cultures were diluted 1:100 into SC-URA media supplemented with 2% galactose and various concentrations of test inhibitor. After a further 24–48 hours incubation at 30°C, the extent of growth was assessed by measuring absorbance at 600 nm. […] Tubes were incubated in a rotating drum while plates were agitated using a plate mixer. A600 for 96-well plate cultures was determined using a Molecular Devices SpectraMax M5 plate reader. Test compounds were dissolved in DMSO at 40–50 mM and diluted into water containing 0.1% fatty acid free bovine serum albumin. In all cases, the DMSO concentration in the assay was less than 2% (v/v).

Another series addresses recombinant human SphK1. Details: method as in PMID 21216217. The settings on record: determined previously; cited from earlier work.
Series [2] concerns the target T1, human SphK1. Kind of series: yeast growth rescue assay, strain KYA1 (PDR5 deleted) expressing human SphK1. Format: cell-based.
Text: as §1, §2

Series [3] concerns the target T2, human SphK2 (Homo sapiens, UniProt Q9NRA0).
T2 construct: full length (wild type hSK2); expressed in transfected cells; host or cells: Saccharomyces cerevisiae CBY169 or KYA1, plasmid pGAL-HsSPHK2
T2 sequence (Q9NRA0 1-618 isoform Q9NRA0-2): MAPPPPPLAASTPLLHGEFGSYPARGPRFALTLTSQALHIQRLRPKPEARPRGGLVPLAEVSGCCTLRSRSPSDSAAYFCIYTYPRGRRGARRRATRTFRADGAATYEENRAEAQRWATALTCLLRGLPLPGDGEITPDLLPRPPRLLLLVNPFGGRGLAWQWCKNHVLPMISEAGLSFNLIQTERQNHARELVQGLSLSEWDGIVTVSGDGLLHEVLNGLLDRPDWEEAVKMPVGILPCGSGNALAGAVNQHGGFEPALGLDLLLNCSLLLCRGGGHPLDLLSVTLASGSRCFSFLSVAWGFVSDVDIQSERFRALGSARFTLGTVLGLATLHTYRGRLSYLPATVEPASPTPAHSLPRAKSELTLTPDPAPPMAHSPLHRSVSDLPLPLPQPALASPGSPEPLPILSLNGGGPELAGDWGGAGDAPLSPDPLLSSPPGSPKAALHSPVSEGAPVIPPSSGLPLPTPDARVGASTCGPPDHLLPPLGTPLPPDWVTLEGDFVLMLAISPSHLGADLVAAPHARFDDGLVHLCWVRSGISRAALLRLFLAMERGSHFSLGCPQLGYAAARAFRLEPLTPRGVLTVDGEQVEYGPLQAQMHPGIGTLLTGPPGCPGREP
Kind of series: yeast growth rescue assay, strain CBY169 expressing human SphK2. It counts as cell-based.
Text: as §1

The target of another series is sphingosine kinase. Details: method as in PMID 21216217. The settings on record: cited from earlier work.
Another series has as its system yeast strain CBY169. Kind of series: toxicity for yeast (growth of strains without lipid kinase expression). The settings on record: yeast strain CBY169. As to the method:
as §2
The salient limitations of the yeast assay are those of any cell-based assay. Namely, the assay reports EC50 values rather than Km, Vmax or kcat values of inhibitors, test compounds must not be markedly cytotoxic at the concentrations tested and compounds must accumulate to some extent in the yeast. Cytotoxicity is readily discerned by testing compounds for an effect on growth of strains without lipid kinase expression.

The target of series [4] is T2, human SphK2. The experiment in a line: yeast growth rescue assay, strain KYA1 (PDR5 deleted) expressing human SphK2. It counts as cell-based. The text has this:
(§3) The yeast strains used in this study include JS1256 (MATa his3Δ1 leu2Δ0 met15Δ0 ura3Δ0) and CBY169 (MATα leu2-3,112 ura3-52 his4 trp1 rme1 dpl1Δ::TRP1 lcb3Δ::LEU2 lcb4Δ::kanMX lcb5Δ::kanMX) (the latter provided by Kyle Cunningham). The CBY169 strain was modified further by replacement of the PDR5 gene with a selectable marker (confers resistance to clonat) to generate strain KYA1 (MATα leu2-3,112 ura3-52 his4 trp1 rme1 dpl1Δ::TRP1 lcb3Δ::LEU2 lcb4Δ::kanMX lcb5Δ::kanMX pdr5Δ::natMX).
(§4) The plasmids pGAL-HsSPHK1, pGAL-HsSPHK2, pGAL-MmSphk1, pGAL-MmSphk1L277M, pGAL-MmSphk2, pGAL-HsCERK and pGAL-SK2_MOD used in this study were constructed by sub-cloning DNA encoding the indicated translational open reading frames into the pYES2-FLAG-URA expression vector (provided by Dr. Cungui Mao). The encoded proteins all have an amino terminal FLAG epitope tag ([…]) and their expression is under the control of the GAL1,10 promoter. Excepting human and mouse SphK2, the DNA sequences are synthetic (from GeneWiz LLC (South Plainfield, NJ)) and were optimized for expression in S. cerevisiae.

Series [5] deals with human and rat SphK1 and SphK2. Details: method as in PMID 26243740. The note with it: cited from earlier work.
A further series has as its target T3, mouse SphK1 L277M (Mus musculus, UniProt Q8CI15, L271M).
T3 construct: constructed by sub-cloning DNA encoding the indicated translational open reading frames into the pYES2-FLAG-URA expression vector; expressed in transfected cells; host or cells: Saccharomyces cerevisiae (CBY169, printed 'CYA169', and KYA1), plasmid pGAL-MmSphk1L277M
The experiment in a line: yeast growth rescue assay, mouse SphK1 L277M mutant versus wild type mouse SphK1. Format: cell-based.
Text: as §1

The target of a further series is T4, human CerK (Homo sapiens, UniProt Q8TCT0).
T4 construct: constructed by sub-cloning DNA encoding the indicated translational open reading frames into the pYES2-FLAG-URA expression vector; expressed in transfected cells; host or cells: Saccharomyces cerevisiae JS1256, plasmid pGAL-HsCERK
T4 sequence (Q8TCT0 1-537): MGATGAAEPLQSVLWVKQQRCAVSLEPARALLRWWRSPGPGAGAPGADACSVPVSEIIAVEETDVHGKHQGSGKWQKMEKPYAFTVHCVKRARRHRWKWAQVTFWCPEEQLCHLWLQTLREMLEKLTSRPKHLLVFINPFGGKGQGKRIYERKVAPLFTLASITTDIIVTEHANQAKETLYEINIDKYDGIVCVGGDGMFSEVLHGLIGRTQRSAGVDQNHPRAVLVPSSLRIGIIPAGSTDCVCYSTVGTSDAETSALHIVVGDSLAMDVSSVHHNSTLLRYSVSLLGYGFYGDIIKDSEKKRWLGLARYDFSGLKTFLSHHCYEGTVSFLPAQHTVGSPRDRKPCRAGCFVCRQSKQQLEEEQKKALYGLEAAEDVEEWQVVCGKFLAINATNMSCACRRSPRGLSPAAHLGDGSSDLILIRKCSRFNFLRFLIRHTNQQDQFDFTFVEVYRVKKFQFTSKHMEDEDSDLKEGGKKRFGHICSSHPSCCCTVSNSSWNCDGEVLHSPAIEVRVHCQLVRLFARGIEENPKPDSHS
The experiment in a line: yeast growth rescue assay, strain JS1256 (WT) expressing human CerK. Format: cell-based. The settings on record: galactose media.
Text: as §3, §4

For series [6], the target named is T5, human SphK2 deletion mutant 11–1 (12–137 & 371–436 deleted) (Homo sapiens, UniProt Q9NRA0, D462G/DEL396-461/E171D/G163S/G648A).
T5 construct: a set of mutants lacking portions of the non-SphK1 overlapping amino acids of human SphK2; expressed in transfected cells; host or cells: Saccharomyces cerevisiae CBY169
T5 sequence (Q9NRA0 with tags, fused parts or gaps isoform Q9NRA0-2 G127S/E135D/DEL360-425/D426G/G612A): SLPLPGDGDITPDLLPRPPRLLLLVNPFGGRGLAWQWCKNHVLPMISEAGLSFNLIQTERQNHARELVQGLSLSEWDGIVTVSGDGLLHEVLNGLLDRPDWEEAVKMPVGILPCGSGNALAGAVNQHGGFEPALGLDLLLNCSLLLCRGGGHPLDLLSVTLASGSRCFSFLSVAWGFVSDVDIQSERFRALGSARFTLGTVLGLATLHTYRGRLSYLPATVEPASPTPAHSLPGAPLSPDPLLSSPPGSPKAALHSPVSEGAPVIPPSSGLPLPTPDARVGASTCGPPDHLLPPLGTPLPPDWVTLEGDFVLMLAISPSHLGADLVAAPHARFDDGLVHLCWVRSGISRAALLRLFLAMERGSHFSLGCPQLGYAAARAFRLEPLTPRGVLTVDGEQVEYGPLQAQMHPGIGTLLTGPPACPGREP
The experiment in a line: yeast growth rescue, CBY169, human SphK2 deletion mutant 11–1. It counts as cell-based. The settings on record: mutant 11–1 (191 aa deleted). The source says: While some of the nucleotide changes were translationally silent, the altered human SphK2 (termed ‘SK2_MOD’) DNA encoded five amino acid changes (Glu71Asp, Gly138Ser, Glu146Asp, Glu437Gly, Gly623Ala).

In series [7] the target is T2, human SphK2. The experiment in a line: LCMS of phospho-LCBs in yeast expressing human SphK2. Format: cell-based. The note with it: yeast with pGAL-HsSPHK2, galactose media, 6 hours, inhibitor 300 nM. As to the method:
Cell pellets (approximately 5 million cells) were mixed with 2 mL of a 3:1 methanol/chloroform mixture and transferred to a capped glass vial. To this suspension was added 10 μL of internal standard solution containing 1 μM d7S1P (deuterated sphingosine 1-phosphate) (Avanti Polar Lipids). The mixture was homogenized in a bath sonicator for 10 min and incubated at 48°C for 16 h. The mixture was then cooled to room temperature and mixed with 200 μL of 1 M KOH in methanol. The samples were again sonicated and incubated at 37°C for 2 h. After this time, the samples were neutralized through the addition of 20 μL of glacial acetic acid and transferred to 2 mL microcentrifuge tubes. […] Immediately before LCMS analysis, the material was dissolved in 300 μL of methanol, clarified by centrifuged at 12,000 x g for 12 min at 4°C, and analyzed by LCMS.
Analyses were performed using a triple quadrupole mass spectrometer (Sciex 4000 Q-Trap) coupled to a Shimadzu LC-20AD liquid chromatography system. […] Sphingolipids were detected using MRM (multiple reaction monitoring) methods as follows: d7S1P (387.4→271.3); dhS1P (382.4→266.4); dhSph (dihydroSphingosine) (302.5→60.0); phytoS1P (398.3→300.4) and phytosSph (318.4→282.3).
Yeast were cultured for 6 hours in the indicated media; inhibitors were present at 300 nM. Sphingolipids in cell pellets were analyzed by LCMS (see Methods for details).

T1 sequence (Q9NYA1 whole entry): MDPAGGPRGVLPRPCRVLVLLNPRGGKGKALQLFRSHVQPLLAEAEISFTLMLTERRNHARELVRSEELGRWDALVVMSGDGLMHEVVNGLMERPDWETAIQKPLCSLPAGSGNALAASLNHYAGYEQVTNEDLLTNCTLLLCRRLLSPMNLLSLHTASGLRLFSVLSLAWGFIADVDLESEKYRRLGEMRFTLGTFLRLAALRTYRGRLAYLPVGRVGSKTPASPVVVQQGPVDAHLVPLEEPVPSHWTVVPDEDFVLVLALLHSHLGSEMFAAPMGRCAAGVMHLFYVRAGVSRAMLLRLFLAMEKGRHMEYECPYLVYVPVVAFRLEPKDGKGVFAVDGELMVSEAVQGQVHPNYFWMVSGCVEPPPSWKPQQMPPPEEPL
T3 sequence (Q8CI15 1-388 isoform Q8CI15-2 L277M): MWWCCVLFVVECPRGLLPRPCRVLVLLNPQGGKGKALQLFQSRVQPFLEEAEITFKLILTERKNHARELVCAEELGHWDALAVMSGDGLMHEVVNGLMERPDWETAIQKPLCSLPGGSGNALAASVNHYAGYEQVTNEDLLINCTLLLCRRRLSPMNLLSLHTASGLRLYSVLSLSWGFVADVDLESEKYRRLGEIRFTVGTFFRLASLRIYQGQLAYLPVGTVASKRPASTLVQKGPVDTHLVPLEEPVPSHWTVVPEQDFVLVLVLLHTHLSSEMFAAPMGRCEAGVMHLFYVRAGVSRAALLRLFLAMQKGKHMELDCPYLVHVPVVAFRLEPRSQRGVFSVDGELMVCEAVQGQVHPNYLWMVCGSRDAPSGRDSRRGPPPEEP

For `CCCCCCCc1ccc(NC(=O)[C@@H](N)CCO)cc1` [9ab], the concentration giving a half-maximal response (EC50) (as a rule, the concentration needed to bring the measured effect to its halfway point) at human SphK1 [1] came to 900 nM. The Ki (in general, a dissociation constant, usually derived from enzyme kinetics or from competition with a known ligand) at recombinant human SphK1 is 1400 to 1700 nM.
Regarding `Oc1ccc(Nc2nc(-c3ccc(Cl)cc3)cs2)cc1` [SKI-II], the “rescue of growth in galactose media” value at human SphK1 [1] is “failed to rescue growth”. Moreover, the rescue of growth result on human SphK1 [2], on human SphK2 [3] and at human SphK2 [4] (strain KYA1 expressing human SphK2) was “failed to rescue growth” in each case. In addition, the Ki at sphingosine kinase is 12 to 30 µM. Besides, in the series with yeast strain CBY169, the “concentrations at which toxic for yeast” value is listed as “above 3 μM”.
Regarding `CCCCCOc1ccc2cc(-c3noc([C@@H]4[C@@H](O)CCN4C(=N)N)n3)ccc2c1` [SLC5111312], the “rescue of growth in galactose media” value at human SphK1 [1] is recorded as “restored full growth”. Besides, the “potency at SphK1 versus SphK2” value in series [5] is “equipotent”. In addition, on mouse SphK1 L277M (mouse SphK1 L277M versus human SphK1, yeast growth rescue), the “EC50 values for mutant mouse enzyme versus human enzyme” value was “similar”. Besides, the “potency at mutant (L277M) versus wild type mouse SphK1” value on mouse SphK1 L277M (yeast growth rescue) is recorded as “distinctly more potent”. In addition, at human SphK2 [3], the rescue of growth result is “rescued growth”. The “concentrations at which toxic for yeast” value in the series with yeast strain CBY169 lay within 2 to 3 µM.
On to `O=C(Nc1nc2ccc(NC(=O)C34CC5CC(CC(C5)C3)C4)cc2s1)c1ccccc1` [NVP-231], for which the rescue of growth entry at human CerK is listed as “growth was restored in a dose dependent fashion”.
In the case of `CCCCCCCCOc1ccc(-c2noc([C@@H]3CCCN3C(=N)N)n2)cc1C(F)(F)F` [SLM6031434], the rescue of growth result at human SphK2 [3] is “rescued growth”. In [6], the loss of potency is ~3 fold. Besides, in the series with yeast strain CBY169, the “concentrations at which toxic for yeast” value fell in the range of 2 to 3 µM. Besides, the phospho-LCB levels entry at human SphK2 [7] is reported as “decreased”. Also, the “potency in CBY169 vs. KYA1 strains (PDR5p status)” value on human SphK2 [4] (presence (CBY169) or absence (KYA1) of PDR5) is given as “the same; also recorded: not different”.
